Assays:
[1] = target: T1, [IKZF1 ZF2]-[compound]-[CRBN/DDB1] ternary complex (Homo sapiens, UniProt Q13422+Q96SW2); assay: AlphaLISA assay for off-target recruitment detection, IKZF1 ZF2; format: binding; conditions: 1 μM compound; normalized to Lenalidomide; read-out: Normalized ternary complex response, IKZF1 ZF2
T1 construct: IKZF1 ZF2
Description: The ability of the molecular glue compounds of the invention to mediate the proximity of CRBN with its known neo-substrates (shown in Table 3) was assessed using AlphaLISA to detect the formation of a [neo-substrate]-[compound of formula (I)]-[CRBN/DDB1] ternary complex.
Two types of protein solution were prepared: • neo-substrate, 40 μg/ml AlphaScreen Donor Beads (Table 3) in PBS (10 mM phosphate buffer, 137 mM NaCL, 2.7 mM KCl, pH 7.4) buffer supplemented with Tween-20 (Table 3) and 1 mM DTT, • 200 nM 6×His-CRBN/DDB1, 40 μg/ml AlphaLISA Anti-6×His Acceptor beads in PBS buffer with Tween-20 (Table 3) and 1 mM DTT.
The prepared solutions were incubated at room temperature for 30 min and then the solution containing the donor beads was mixed with the solution containing the acceptor beads.
The tested compounds were dispensed onto a white 384-well AlphaPlate 384 SW. DMSO was backfilled to all wells, resulting in a final DMSO content of 2%. Wells containing only DMSO served as background. Next, 10 μl of solution with donor and acceptor beads was added to the wells.
The plate was sealed with transparent film and shaken using a VibroTurbulator for 60 sec at room temperature, level 3. The plate was then spun down shortly (10 sec, 1000 rcf, room temperature) and incubated at 25° C. for 30 min.
The read-out was performed with PerkinElmer Enspire Multimode Plate Reader (method for AlphaLISA 384-well low volume, Filterset: λexc=680 nm, λem=615 nm).
The results were analyzed as follows: • 1) an average of luminescence for background signal was calculated and used as a negative control; • 2) an average of the maximum measured luminescence for reference compound (Table 3) was calculated and used as an internal positive control; • 3) raw luminescence values were normalized against positive and negative controls; • 4) Normalized responses to reference molecular glue were determined.

[2] = target: CRBN/DDB1 protein complex (Homo sapiens, UniProt Q96SW2); assay: CRBN displacement TR-FRET assay; conditions: Thalidomide-Red tracer, 6×His-CRBN/DDB1; read-out: CRBN binding Ki
Description: CRBN/DDB1 protein complex was mixed with Thalidomide-Red and a compound to be tested (the “test compound”). The test solution contained PPI Europium detection buffer, 1 mM DTT, 6.8 nM Thalidomide-Red (the tracer), 5 nM 6×His-CRBN/DDB1 protein, 0.5 nM Anti-6× His-Eu cryptate, 1% DMSO. The test solution was added to a 384-well assay plate.
The plate was spun-down (1 min, 1000 rpm, 22° C.) and then shaken using a VibroTurbulator for 30 sec at room temperature (20-25° C.), with the frequency set to level 10. The assay plate with protein and the tracer was incubated for 180 min at room temperature (20-25° C.) prior to read-out with a plate reader. The read-out was performed with plate reader (Pherastar, BMG Labtech) in time resolved fluorescence mode. Filter settings: TR 337 665 620.
The CRBN displacement TR-FRET experiment was carried out with various concentrations of the test compounds in order to measure Ki values.
The Ki values of competitive inhibitors were calculated using the equation based on the IC50 values of relationship between compound concentration and measured […], the Kd value of the Thalidomide-Red and CRBN/DDB1 complex, and the concentrations of the protein and the tracer in the displacement assay (as described by Cheng and Prusoff, Biochem Pharmacol 1973; 22:3099-3108).

[3] = target: T2, GSPT1-HiBiT protein in GSPT1-HiBiT HEK293 cells (Homo sapiens, UniProt P15170+Q96SW2); assay: GSPT1 degradation assay using HiBiT system (Nano-Glo HiBiT lytic assay); format: cell-based; conditions: 6 hours treatment; for DC50: read-out: HiBiT lytic assay Geomean absolute DC50
T2 construct: endogenous in cells; host or cells: HEK293 (CRISPR/Cas9 knock-in of HiBiT at the GSPT1 locus)
Source text: The effect of selected compounds of the invention on GSPT1 protein levels was investigated, using the GSPT1-HiBiT HEK293 cell line and the Nano-Glo HiBiT degradation assay protocol below.
GSPT1-HiBiT HEK293 cells were generated in-house using the HEK293 parental cells (ATCC, cat. no 70016364) and the CRISPR/Cas9 system. HEK293 cells were transformed with pSpCas9-BB-2A-Puro v2.0 plasmid carrying gRNA targeting the C-terminus of GSPT1 and ssODN template containing the HiBiT tag sequence with flanking homology sequences. Neon Transfection System (Thermo Fisher Scientific) was used for electroporation. HEK293 GSPT1-HiBiT cells were cultured with DMEM Glutamax (Gibco) supplemented with 10% heat inactivated FBS (Gibco). After transfection the culture medium was changed to DMEM Glutamax with 10% heat-inactivated FBS and 1% Penicillin-Streptomycin (Biowest) supplemented with Puromycin (2 μg/ml; Invivogen) for clonal selection. In order to isolate single cell clones for further validation and analysis, limiting dilution cloning in 96-well plates was performed. When the single clones reached confluency, HiBiT Lytic Assay (Promega) was performed in order to identify HiBiT positive clones. The clone selected for further studies was verified and validated using genotyping and HiBiT Blotting (Promega).
Cells were maintained in DMEM Glutamax medium, supplemented with 1% penicillin/streptomycin and 10% Fetal Bovine Serum (FBS) at 37° C., 5% CO2. Compounds were stored frozen as 20 mM DMSO stocks.
For the Nano-Glo HiBiT assay, cells were seeded onto 384-well white solid bottom plate at 2×10^3 cells/well in 40 μL using the Agilent BioTek MultiFlo FX Multimode Dispenser and incubated overnight. Following overnight incubation (37° C., 5% CO2) cells were treated with the test compounds and vehicle only (DMSO) control using the Echo 555 Liquid Handler. Twelve data-point compound titration curve with concentrations ranging from 10 μM to 0.03 nM was used. Final DMSO concentration was kept constant at 0.25% v/v across the assay plate. After 6 hours of incubation (37° C., 5% CO2), plates were removed from the incubator and let to equilibrate to RT. Luminescent signal detection was conducted using the Nano-Glo HiBiT Lytic Detection System (Promega, cat. nr N3050). Nano-Glo HiBiT Lytic Reagent was prepared freshly by diluting the LgBiT Protein (1:100 vol/vol) and the Nano-Glo HiBiT Lytic Substrate (1:50 vol/vol) in the relevant volume of the Nano-Glo HiBiT Lytic Buffer. 40 μL of the HiBiT Lytic Reagent was added per well, plates were shaken to facilitate lysis (350 rpm, 5 min, RT) and incubated in the dark for the following 10 min. Luminescence was read using the PHERAstar multimode plate reader (BMG LABTECH). The raw data (the relative luminescence unit values, RLU) were uploaded under the relevant protocol and analysed in CDDVault data management platform. Luminescence (RLU) values were normalized to the controls, and reported absolute DC50 values and Dmax values were calculated in CDDVault using non-linear regression and appropriate equations.

Sequence of CRBN/DDB1 protein complex (Q96SW2 whole entry, species assumed): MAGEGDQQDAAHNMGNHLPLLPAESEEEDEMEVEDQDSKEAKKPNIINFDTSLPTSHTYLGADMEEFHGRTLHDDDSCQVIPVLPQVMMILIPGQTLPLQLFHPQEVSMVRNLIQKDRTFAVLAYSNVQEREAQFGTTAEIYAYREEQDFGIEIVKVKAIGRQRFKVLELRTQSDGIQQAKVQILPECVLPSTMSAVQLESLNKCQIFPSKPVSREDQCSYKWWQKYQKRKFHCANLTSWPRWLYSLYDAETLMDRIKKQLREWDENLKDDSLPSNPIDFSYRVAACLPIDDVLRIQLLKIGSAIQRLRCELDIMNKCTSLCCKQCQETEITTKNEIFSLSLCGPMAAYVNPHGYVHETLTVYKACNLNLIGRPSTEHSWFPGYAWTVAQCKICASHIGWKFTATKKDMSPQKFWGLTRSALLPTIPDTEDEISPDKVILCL
Sequence of CRBN/DDB1 protein complex (Q16531 whole entry partner, species assumed): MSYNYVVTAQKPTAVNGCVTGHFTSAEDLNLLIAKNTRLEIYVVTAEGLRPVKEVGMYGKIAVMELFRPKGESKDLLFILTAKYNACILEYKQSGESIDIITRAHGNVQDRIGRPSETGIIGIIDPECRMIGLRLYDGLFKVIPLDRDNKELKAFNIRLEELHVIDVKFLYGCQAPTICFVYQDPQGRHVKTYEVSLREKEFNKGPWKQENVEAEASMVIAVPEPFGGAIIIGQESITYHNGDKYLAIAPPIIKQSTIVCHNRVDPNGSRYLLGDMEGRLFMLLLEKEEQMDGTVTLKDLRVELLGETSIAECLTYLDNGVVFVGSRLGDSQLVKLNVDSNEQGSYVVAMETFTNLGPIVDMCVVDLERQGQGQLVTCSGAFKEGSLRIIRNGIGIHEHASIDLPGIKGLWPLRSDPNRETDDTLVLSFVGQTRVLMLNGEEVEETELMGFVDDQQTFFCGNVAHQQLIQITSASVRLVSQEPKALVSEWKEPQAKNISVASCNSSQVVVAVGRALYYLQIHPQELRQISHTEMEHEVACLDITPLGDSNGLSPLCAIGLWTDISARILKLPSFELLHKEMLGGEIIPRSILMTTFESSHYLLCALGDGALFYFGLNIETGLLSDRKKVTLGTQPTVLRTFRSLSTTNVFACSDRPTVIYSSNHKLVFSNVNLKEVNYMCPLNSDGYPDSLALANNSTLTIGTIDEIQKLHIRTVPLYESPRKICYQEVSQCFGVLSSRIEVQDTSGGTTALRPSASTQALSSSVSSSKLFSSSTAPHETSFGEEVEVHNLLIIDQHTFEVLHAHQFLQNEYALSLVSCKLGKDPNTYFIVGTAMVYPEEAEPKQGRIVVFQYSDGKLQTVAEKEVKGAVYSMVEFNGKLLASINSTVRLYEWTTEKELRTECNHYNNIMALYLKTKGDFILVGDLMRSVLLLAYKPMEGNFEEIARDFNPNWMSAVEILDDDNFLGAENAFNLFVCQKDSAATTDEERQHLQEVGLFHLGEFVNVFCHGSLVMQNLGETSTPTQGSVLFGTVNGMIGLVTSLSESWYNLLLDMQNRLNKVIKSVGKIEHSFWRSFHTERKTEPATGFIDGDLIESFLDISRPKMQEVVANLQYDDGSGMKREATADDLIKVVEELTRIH
T2 sequence (P15170 whole entry): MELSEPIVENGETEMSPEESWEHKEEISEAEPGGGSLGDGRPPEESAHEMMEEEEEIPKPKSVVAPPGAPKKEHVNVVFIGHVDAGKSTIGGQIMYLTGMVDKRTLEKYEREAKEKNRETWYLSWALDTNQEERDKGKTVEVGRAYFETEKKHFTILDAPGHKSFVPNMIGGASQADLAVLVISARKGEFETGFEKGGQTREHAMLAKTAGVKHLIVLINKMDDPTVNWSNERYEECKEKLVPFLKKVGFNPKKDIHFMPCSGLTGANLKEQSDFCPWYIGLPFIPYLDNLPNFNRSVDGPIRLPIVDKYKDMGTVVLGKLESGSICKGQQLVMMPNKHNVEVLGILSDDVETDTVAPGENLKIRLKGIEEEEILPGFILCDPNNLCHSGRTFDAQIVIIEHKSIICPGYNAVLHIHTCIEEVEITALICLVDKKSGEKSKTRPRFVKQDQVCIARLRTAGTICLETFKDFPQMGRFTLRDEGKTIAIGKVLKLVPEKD
T2 sequence (Q96SW2 whole entry): as the sequence (Q96SW2 whole entry, species assumed) above
T2 sequence (Q16531 whole entry partner): as the sequence (Q16531 whole entry partner, species assumed) above
T1 sequence (Q13422 145-167 limits assumed): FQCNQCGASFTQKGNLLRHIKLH
T1 sequence (Q96SW2 whole entry): as the sequence (Q96SW2 whole entry, species assumed) above
T1 sequence (Q16531 whole entry partner): as the sequence (Q16531 whole entry partner, species assumed) above

Row | Compound | activation at 1 µM [1] [%] | Ki [2] [nM] | Dmax [3] [%] | DC50 [3] [nM]
1 | Cc1ccc(NC(=S)NCc2ccc3cc(C4CCC(=O)NC4=O)c(C)nc3c2)cc1Cl (centres unmarked) [Compound 2, 1-(3-chloro-4-methylphenyl)-3-((3-(2,6-dioxopiperidin-3-yl)-2-methylquinolin-7-yl)methyl)thiourea] | < 10 | 500 to 1000 |  | 
2 | Cc1ccc(NC(=O)OCc2ccc3cc(C4CCC(=O)NC4=O)c(C)nc3c2)cc1Cl (centres unmarked) [Compound 4, (3-(2,6-dioxopiperidin-3-yl)-2-methylquinolin-7-yl)methyl (3-chloro-4-methylphenyl)carbamate] | < 10 | 500 to 1000 | ≥ 75 | 10 to 50
3 | Cc1ccc(NC(=O)OCc2ccc3nc(C)c(C4CCC(=O)NC4=O)cc3c2)cc1Cl (centres unmarked) [Compound 5, (3-(2,6-dioxopiperidin-3-yl)-2-methylquinolin-6-yl)methyl (3-chloro-4-methylphenyl)carbamate] | 25 to 50 | < 500 |  | 
4 | Cc1nc2cc(COC(=O)Nc3cc(OC(F)(F)F)ccc3F)ccc2cc1C1CCC(=O)NC1=O (centres unmarked) [Compound 6, (3-(2,6-dioxopiperidin-3-yl)-2-methylquinolin-7-yl)methyl (2-fluoro-5-(trifluoromethoxy)phenyl)carbamate] | < 10 | > 1000 | ≥ 75 | 10 to 50
5 | Cc1nc2cc(COC(=O)Nc3ccc(Cl)c(Cl)c3)ccc2cc1C1CCC(=O)NC1=O (centres unmarked) [Compound 12, (3-(2,6-dioxopiperidin-3-yl)-2-methylquinolin-7-yl)methyl (3,4-dichlorophenyl)carbamate] | < 10 | > 1000 | ≥ 75 | 10 to 50
6 | Cc1nc2cc(COC(=O)Nc3ccc4c(c3)OCO4)ccc2cc1C1CCC(=O)NC1=O (centres unmarked) [Compound 14, (3-(2,6-dioxopiperidin-3-yl)-2-methylquinolin-7-yl)methyl benzo[d][1,3]dioxol-5-ylcarbamate] | < 10 | > 1000 | ≥ 75 | 10 to 50
7 | Cc1nc2cc(COC(=O)Nc3cc(Cl)c(C)c(CN4CCOCC4)c3)ccc2cc1C1CCC(=O)NC1=O (centres unmarked) [Compound 17, (3-(2,6-dioxopiperidin-3-yl)-2-methylquinolin-7-yl)methyl (3-chloro-4-methyl-5-(morpholinomethyl)phenyl)carbamate] | < 10 | < 500 | ≥ 75 | < 10
8 | Cc1nc2cc(COC(=O)Nc3ccc(C(F)(F)F)c(Cl)c3)ccc2cc1C1CCC(=O)NC1=O (centres unmarked) [Compound 18, (3-(2,6-dioxopiperidin-3-yl)-2-methylquinolin-7-yl)methyl (3-chloro-4-(trifluoromethyl)phenyl)carbamate] | < 10 | 500 to 1000 | ≥ 75 | 10 to 50
9 | Cc1nc2cc(COC(=O)Nc3cccc(OC(F)(F)F)c3)ccc2cc1C1CCC(=O)NC1=O (centres unmarked) [Compound 19, (3-(2,6-dioxopiperidin-3-yl)-2-methylquinolin-7-yl)methyl (3-(trifluoromethoxy)phenyl)carbamate] | < 10 | > 1000 | ≥ 75 | < 10

Results, then the compound that gave them:

Row | activation at 1 µM [1] [%] | Ki [2] [nM] | Dmax [3] [%] | DC50 [3] [nM] | Compound
10 | < 10 | < 500 | ≥ 75 | < 10 | Cc1nc2cc(COC(=O)Nc3ccc(C(C)(C)C)cc3)ccc2cc1C1CCC(=O)NC1=O (centres unmarked) [Compound 8, (3-(2,6-dioxopiperidin-3-yl)-2-methylquinolin-7-yl)methyl (4-(tert-butyl)phenyl)carbamate]
11 | < 10 | > 1000 | ≥ 75 | 10 to 50 | Cc1nc2cc(COC(=O)Nc3cccc(C(C)(C)C)c3)ccc2cc1C1CCC(=O)NC1=O (centres unmarked) [Compound 9, (3-(2,6-dioxopiperidin-3-yl)-2-methylquinolin-7-yl)methyl (3-(tert-butyl)phenyl)carbamate]
12 | < 10 | < 500 | ≥ 75 | < 10 | Cc1nc2cc(COC(=O)Nc3ccc(C(C)(C)C)c(Cl)c3)ccc2cc1C1CCC(=O)NC1=O (centres unmarked) [Compound 10, (3-(2,6-dioxopiperidin-3-yl)-2-methylquinolin-7-yl)methyl (4-(tert-butyl)-3-chlorophenyl)carbamate]
13 | < 10 | > 1000 | ≥ 75 | < 10 | COc1ccc(NC(=O)OCc2ccc3cc(C4CCC(=O)NC4=O)c(C)nc3c2)cc1Cl (centres unmarked) [Compound 11, (3-(2,6-dioxopiperidin-3-yl)-2-methylquinolin-7-yl)methyl (3-chloro-4-methoxyphenyl)carbamate]
14 | < 10 | > 1000 | ≥ 75 | < 10 | Cc1nc2cc(COC(=O)Nc3ccc4c(c3)OCCO4)ccc2cc1C1CCC(=O)NC1=O (centres unmarked) [Compound 15, (3-(2,6-dioxopiperidin-3-yl)-2-methylquinolin-7-yl)methyl (2,3-dihydrobenzo[b][1,4]dioxin-6-yl)carbamate]
15 | < 10 | < 500 | ≥ 75 | < 10 | Cc1nc2cc(COC(=O)Nc3ccc(-c4ccccc4)nc3)ccc2cc1C1CCC(=O)NC1=O (centres unmarked) [Compound 20, (3-(2,6-dioxopiperidin-3-yl)-2-methylquinolin-7-yl)methyl (6-phenylpyridin-3-yl)carbamate]
